Reference: patent publication US6680344B1, “Method of treating hair loss using diphenylmethane derivatives” (The University of Texas Southwestern Medical Center, priority 1999, dated 2004)

Tested on: heart/body weight ratio of male Sprague Dawley rats
Test: Cardiotoxicity assay (heart-to-body weight ratio)
Type: in vivo, rat
Conditions: 250 μg/kg subcutaneously once daily for 28 days, cardiac-sparing where C is less than 1.3
Description: The cardiotoxicity assay measures the potential of a test compound to adversely affect the cardiovascular system. As thyroid hormone (T3) damages the cardiovascular system, the heart enlarges. See, e.g., Gomberg-Maitland et al., “Thyroid hormone and Cardiovascular Disease”, American Heart Journal, Vol. 135(2), pp. 187-196 (1998); Klein and Ojamaa, “Thyroid Hormone and the Cardiovascular System”, Current Opinion in Endocrinology and Diabetes, Vol. 4, pp.341-346 (1997); and Klemperer et al., “Thyroid Hormone Therapy and Cardiovascular Disease”, Progress in Cardiovascular Diseases, Vol. 37 (4), pp. 329-336 (1996). This increases the weight of the heart relative to whole body weight. The cardiotoxicity assay herein below is used to test compounds for potentially adverse cardiac effects by measuring their effect on the heart-to-body weight ratio.
Two groups each of six male Sprague Dawley rats (Harlan Sprague Dawley, Inc., Indianapolis, Ind.) (each weighing from approximately 220 grams to 235 grams) are utilized. The first group is a vehicle control group and the second group is a test compound group. The length of the assay is 30 days, with treatment of vehicle or test compound in vehicle daily for 28 of those days as described below.
Prior to initiation of the assay, each rat is allowed to acclimate to standard environmental conditions for 5 days. […]

With `N[C@@H](Cc1cc(I)c(Oc2cc(I)c(O)c(I)c2)c(I)c1)C(=O)O` [T4, thyroxine] the “cardiac-sparing classification (index C = RT/RV, heart/body ratio of test compound group over vehicle control group)” value was “not cardiac-sparing”.
